Patent US7563895B2, “Quinoxaline compounds” (Janssen Pharmaceutica, N.V., priority 2003, dated 2009)

What follows are molecules tested against T1, CCK2 receptor (Homo sapiens, UniProt P32239) (assay: CCK2 receptor radioligand binding assay ([125I]-BH-CCK-8S, HEKZFP cell membranes)). Settings: competition with [125I]-BH-CCK-8S, membranes of induced HEKZFP cells, 60 min at 21±3° C., Cheng-Prusoff.
T1 construct: Membranes were prepared from the HEKZFP cells after induction; endogenous in cells; host or cells: HEKZFP cells (T-REx-293 with tet-inducible ZFP-VP16 specific for the CCK2R gene), doxycycline-induced; membrane preparation
T1 sequence (P32239 1-447): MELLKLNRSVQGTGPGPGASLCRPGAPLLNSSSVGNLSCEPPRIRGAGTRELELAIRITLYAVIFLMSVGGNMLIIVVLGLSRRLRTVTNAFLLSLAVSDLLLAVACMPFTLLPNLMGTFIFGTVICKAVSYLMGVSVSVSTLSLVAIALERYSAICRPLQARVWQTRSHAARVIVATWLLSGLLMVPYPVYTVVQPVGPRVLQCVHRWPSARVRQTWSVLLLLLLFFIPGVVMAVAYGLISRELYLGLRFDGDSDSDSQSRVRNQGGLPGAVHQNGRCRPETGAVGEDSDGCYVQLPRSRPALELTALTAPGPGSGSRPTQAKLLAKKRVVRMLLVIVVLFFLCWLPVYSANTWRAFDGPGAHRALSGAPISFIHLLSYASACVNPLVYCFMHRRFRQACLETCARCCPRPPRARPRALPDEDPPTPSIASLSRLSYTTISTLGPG
Experimental: Zinc Finger Proteins (ZFP) specific for the CCK2R gene were identified by Sangamo Biosciences. The ZFP domain was fused with the herpes simplex virus VP16 activation domain, and the fusion protein was subsequently cloned into the pcDNA3 mammalian expression vector (Invitrogen, San Diego, Calif.). […] After 2 weeks of selection in culture medium containing […] Zeocin (Invitrogen), sixty drug-resistant stable clones were isolated and analyzed for ZFP expression as well as CCK2R induction upon addition of doxycycline to the culture medium.
HEKZFP cells were grown in DMEM supplemented with L-glutamine (2 mM), penicillin (50 units/mL) and streptomycin (50 μg/mL) and 10% FBS (v/v).
Membranes were prepared from the HEKZFP cells after induction. […] The thawed pellets were homogenized using a Polytron PT-10 (7×1 s). The homogenates were centrifuged for 5 min at 1500 rpm (600×g), and the resulting pellets were discarded. The supernatants were re-centrifuged in order to collect the receptor-membrane pellets (25 min 15,000 rpm; 39,800×g), which were re-suspended in buffer A.
The assay preparation was incubated for 1 h at 21±3° C., and then the assay was terminated by rapid filtration of the preparation under reduced pressure. The loaded filters were washed three times using undiluted PBS (100 μL), and then 100 μL of scintillation fluid was added to the filter plate. Bound radioactivity was determined using a Topcount (Packard BioScience, Meriden, Conn.) with a count time of 1 min. […] To validate the radioligand concentration and incubation time for the assay, saturation and kinetic binding studies were also conducted (see M. F. Morton, The Pharmacological Characterization of Cholecystokinin Receptors in the Human Gastrointestinal Tract. PhD Thesis, University of London, 2000). […] The assay was then terminated according to the procedure outlined above.
The pKi values were determined using the equation of Y.-C.
To circumvent problems associated with computer-assisted data analysis of compounds with low affinity, the data obtained in the current study were weighed according to a method described by Morton. In brief, 100% and 0% specific binding were defined independently using total binding and binding obtained in the presence of a high concentration of the reference antagonist, 2-NAP.

Structure (SMILES) | pKi | Ki [nM]
O=C(c1ccc(Cl)cc1NS(=O)(=O)c1cccc2nccnc12)N1CCOCC1 [Example 14, (R)-Quinoxaline-5-sulfonic acid [5-chloro-2-(morpholine-4-carbonyl)phenyl]-amide] | 6.5 | 
O=C(c1ccc(Br)cc1NS(=O)(=O)c1cccc2nccnc12)N1CCCc2cc(F)ccc2C1 [Example 24, Quinoxaline-5-sulfonic acid [5-bromo-2-(7-fluoro-1,3,4,5-tetrahydro-benzo[c]azepine-2-carbonyl)-phenyl]-amide] |  | 316
O=C(c1ccc(Cl)cc1NS(=O)(=O)c1cccc2nccnc12)N1CCCCC1 [Example 79, Quinoxaline-5-sulfonic acid [5-chloro-2-(piperidine-1-carbonyl)-phenyl]-amide] |  | 251
C[C@H]1COCCN1C(=O)c1ccc(Br)cc1NS(=O)(=O)c1cccc2nccnc12 [Example 28, (S)-Quinoxaline-5-sulfonic acid [5-bromo-2-(3-methylmorpholine-4-carbonyl)-phenyl]-amide] |  | 398
O=C(N[C@H](CF)c1ccc(F)cc1)c1ccc(Br)cc1NS(=O)(=O)c1cccc2nccnc12 [Example 71, (S)-4-Bromo-N-[2-fluoro-1-(4-fluoro-phenyl)-ethyl]-2-(quinoxaline-5-sulfonylamino)-benzamide] |  | 79.4
O=C(NCc1ccc(F)cc1Cl)c1ccc(Br)cc1NS(=O)(=O)c1cccc2nccnc12 [Example 16, 4-Bromo-N-(2-chloro-4-fluoro-benzyl)-2-(quinoxaline-5-sulfonylamino)-benzamide] |  | 39.8
O=C(c1ccc(Cl)cc1NS(=O)(=O)c1cccc2nccnc12)N1CCOc2ccccc2C1 [Example 22, Quinoxaline-5-sulfonic acid [5-chloro-2-(2,3-dihydro-5H-benzo[f][1,4]oxazepine-4-carbonyl)-phenyl]-amide] |  | 158
C[C@@H](NC(=O)c1ccc(C#N)cc1NS(=O)(=O)c1cccc2nccnc12)c1ccc(F)cc1F [Example 38, (R)-4-Cyano-N-[1-(2,4-difluoro-phenyl)ethyl]-2-(quinoxaline-5-sulfonylamino)-benzamide] |  | 316
O=C(c1ccc(C(F)(F)F)cc1NS(=O)(=O)c1cccc2nccnc12)N1CCOCC1 [Example 92, Quinoxaline-5-sulfonic acid [2-(morpholine-4-carbonyl)-5-trifluoromethyl-phenyl]-amide] |  | 79.4
C[C@@H]1COCCN1C(=O)c1ccc(I)cc1NS(=O)(=O)c1cccc2nccnc12 [Example 19, (R)-Quinoxaline-5-sulfonic acid [5-iodo-2-(3-methylmorpholine-4-carbonyl)-phenyl]-amide] |  | 79.4
C[C@@H]1COC[C@H](C)N1C(=O)c1ccc(Br)cc1NS(=O)(=O)c1cccc2nccnc12 [Example 27, meso-Quinoxaline-5-sulfonic acid [2-(3,5-dimethylmorpholine-4-carbonyl)-5-bromophenyl]-amide] |  | 316
O=C(NC(CF)c1ccc(F)cc1F)c1ccc(I)cc1NS(=O)(=O)c1cccc2nccnc12 (stereo not drawn) [Example 75, N-[1-(2,4-Difluoro-phenyl)-2-fluoro-ethyl]-4-iodo-2-(quinoxaline-5-sulfonylamino)-benzamide] |  | 63.1
O=C(NCc1ccc(Cl)cc1Cl)c1ccc(Cl)cc1NS(=O)(=O)c1cccc2nccnc12 [Example 58, 4-Chloro-N-(2,4-dichloro-benzyl)-2-(quinoxaline-5-sulfonylamino)-benzamide] |  | 63.1
C[C@@H](NC(=O)c1ccc(Br)cc1NS(=O)(=O)c1cccc2nccnc12)c1ccc(F)cc1 [Example 8, (R)-4-Bromo-N-[1-(4-fluorophenyl)-ethyl]-2-(quinoxaline-5-sulfonylamino)-benzamide] |  | 39.8
O=C(c1ccc(Br)cc1NS(=O)(=O)c1cccc2nccnc12)N1CCCCC1 [Example 32, Quinoxaline-5-sulfonic acid [5-bromo-2-(piperidine-1-carbonyl)-phenyl]-amide] | 7.2 | 
O=C(c1ccc(I)cc1NS(=O)(=O)c1cccc2nccnc12)N1CCCCCC1 [Example 18, Quinoxaline-5-sulfonic acid [2-(azepane-1-carbonyl)-5-iodophenyl]-amide] |  | 63.1
O=C(c1ccc(Br)cc1NS(=O)(=O)c1cccc2nccnc12)N1CCCc2ccccc2C1 [Example 10, Quinoxaline-5-sulfonic acid [5-bromo-2-(1,3,4,5-tetrahydrobenzo[c]azepine-2-carbonyl)phenyl]-amide] |  | 50.1
O=C(NCc1ccc(F)cc1Cl)c1ccc(Cl)cc1NS(=O)(=O)c1cccc2nccnc12 [Example 61, 4-Chloro-N-(2-chloro-4-fluoro-benzyl)-2-(quinoxaline-5-sulfonylamino)-benzamide] |  | 39.8
O=C(N[C@H](CF)c1ccc(F)cc1F)c1ccc(Cl)cc1NS(=O)(=O)c1cccc2nccnc12 [Example 78, (S)-4-Chloro-N-[1-(2,4-difluoro-phenyl)-2-fluoro-ethyl]-2-(quinoxaline-5-sulfonylamino)-benzamide] |  | 39.8

The remaining molecules from weak to strong by Ki, led by results:

pKi | Ki [nM] | Structure (SMILES)
 | 39.8 | CC(NC(=O)c1ccc(I)cc1NS(=O)(=O)c1cccc2nccnc12)c1ccc(F)cc1 (stereo not drawn) [Example 54, N-[1-(4-Fluoro-phenyl)-ethyl]-4-iodo-2-(quinoxaline-5-sulfonylamino)-benzamide]
 | 31.6 | C[C@@H](NC(=O)c1ccc(Cl)cc1NS(=O)(=O)c1cccc2nccnc12)c1ccc(F)cc1 [Example 7, (R)-4-Chloro-N-[1-(4-fluorophenyl)-ethyl]-2-(quinoxaline-5-sulfonylamino)-benzamide]
 | 31.6 | C[C@@H](NC(=O)c1ccc(I)cc1NS(=O)(=O)c1cccc2nccnc12)c1ccc(F)cc1 [Example 63, (R)-N-[1-(4-Fluoro-phenyl)-ethyl]-4-iodo-2-(quinoxaline-5-sulfonylamino)-benzamide]
 | 25.1 | CN(Cc1ccccc1)C(=O)c1ccc(I)cc1NS(=O)(=O)c1cccc2nccnc12 [Example 42, N-Benzyl-4-iodo-N-methyl-2-(quinoxaline-5-sulfonylamino)-benzamide]
 | 25.1 | C[C@@H](NC(=O)c1ccc(C(F)(F)F)cc1NS(=O)(=O)c1cccc2nccnc12)c1ccc(F)cc1F [Example 36, (R)—N-[1-(2,4-Difluorophenyl)ethyl]-2-(quinoxaline-5-sulfonylamino)-4-trifluoromethylbenzamide]
 | 20 | CN(Cc1ccc(Cl)cc1)C(=O)c1ccc(I)cc1NS(=O)(=O)c1cccc2nccnc12 [Example 48, N-(4-Chloro-benzyl)-4-iodo-N-methyl-2-(quinoxaline-5-sulfonylamino)-benzamide]
 | 15.8 | C[C@H](c1ccccc1)N(C)C(=O)c1ccc(Cl)cc1NS(=O)(=O)c1cccc2nccnc12 [Example 62, (R)-4-Chloro-N-methyl-N-(1-phenyl-ethyl)-2-(quinoxaline-5-sulfonylamino)-benzamide]
 | 15.8 | CN(Cc1ccc(F)cc1)C(=O)c1ccc(I)cc1NS(=O)(=O)c1cccc2nccnc12 [Example 35, N-(4-Fluorobenzyl)-4-iodo-N-methyl-2-(quinoxaline-5-sulfonylamino)-benzamide]
 | 12.6 | C[C@@H](NC(=O)c1ccc(I)cc1NS(=O)(=O)c1cccc2nccnc12)c1ccc(F)cc1F [Example 15, (R)—N-[1-(2,4-Difluorophenyl)-ethyl]-4-iodo-2-(quinoxaline-5-sulfonylamino)-benzamide]
 | 10 | C[C@@H](NC(=O)c1ccc(Cl)cc1NS(=O)(=O)c1cccc2nccnc12)c1ccc(Cl)cc1Cl [Example 43, (R)-4-Chloro-N-[1-(2,4-dichloro-phenyl)-ethyl]-2-(quinoxaline-5-sulfonylamino)-benzamide]
 | 7.94 | C[C@@H](NC(=O)c1ccc(Br)cc1NS(=O)(=O)c1cccc2nccnc12)c1ccc(Cl)cc1Cl [Example 1, (R)-4-Bromo-N-[1-(2,4-dichlorophenyl)-ethyl]-2-(quinoxaline-5-sulfonylamino)-benzamide]
